Reference: publication PMC6258903 (Nature, 2014)

Key:
Axl = target: T1, Axl (Homo sapiens, UniProt P30530); test: Tracer-based kinase binding assay
T1 sequence (P30530 26-894): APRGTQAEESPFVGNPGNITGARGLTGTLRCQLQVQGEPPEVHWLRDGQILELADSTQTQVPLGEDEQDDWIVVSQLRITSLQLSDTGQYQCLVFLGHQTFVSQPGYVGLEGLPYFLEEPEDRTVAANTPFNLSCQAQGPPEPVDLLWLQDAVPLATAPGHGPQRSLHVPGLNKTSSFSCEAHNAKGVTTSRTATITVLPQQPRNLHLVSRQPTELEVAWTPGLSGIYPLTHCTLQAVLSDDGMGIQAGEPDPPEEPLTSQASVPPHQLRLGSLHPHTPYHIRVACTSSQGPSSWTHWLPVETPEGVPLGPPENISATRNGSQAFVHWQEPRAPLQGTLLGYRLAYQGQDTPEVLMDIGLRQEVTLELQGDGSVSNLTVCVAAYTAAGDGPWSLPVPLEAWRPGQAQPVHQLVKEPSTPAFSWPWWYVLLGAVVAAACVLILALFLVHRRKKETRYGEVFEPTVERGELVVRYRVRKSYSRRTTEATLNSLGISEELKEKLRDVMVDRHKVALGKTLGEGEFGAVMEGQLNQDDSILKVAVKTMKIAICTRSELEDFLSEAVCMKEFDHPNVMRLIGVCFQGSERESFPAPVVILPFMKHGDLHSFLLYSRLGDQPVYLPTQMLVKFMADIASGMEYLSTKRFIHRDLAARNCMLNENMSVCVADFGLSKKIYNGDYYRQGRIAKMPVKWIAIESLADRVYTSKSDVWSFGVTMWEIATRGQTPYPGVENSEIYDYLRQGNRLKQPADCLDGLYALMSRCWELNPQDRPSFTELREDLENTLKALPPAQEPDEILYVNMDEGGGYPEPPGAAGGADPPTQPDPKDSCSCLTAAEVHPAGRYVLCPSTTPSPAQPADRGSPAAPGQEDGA

[1] = tested on: 95 different cancer cell lines; test: Proliferation assay on a panel of cancer cell lines; type: cell-based
RMA-Rae1 cells = test: In vivo NK cell cytotoxicity towards RMA-Rae1 cells; conditions: warfarin, Cbl-b+/+ mice treated for 7 days before inoculation
[2] = Prothrombine time and bleeding in warfarin-treated mice
B16F10 melanoma = test: B16F10 metastatic melanoma model, low dose warfarin in drinking water; type: in vivo, mice; conditions: for melanoma metastases to the lungs and distal organs: low dose warfarin 0.5mg/l in drinking water
RMA-S cells = test: In vivo NK cell cytotoxicity towards RMA-S cells; conditions: Cbl-b+/+ mice treated for 7 days before inoculation

Which “inhibitory activity of reference compounds in the Axl HTRF assay” value (from here on “inhibitory activity”) (Axl) does the source give for `CCOc1ccn(-c2ccc(F)cc2)c(=O)c1C(=O)Nc1ccc(Oc2ccnc(N)c2Cl)c(F)c1` [BMS-777607/ASLAN002] here?
Its value is “showed inhibitory activities as expected”.

For `Cc1nc(Nc2ncc(C(=O)Nc3c(C)cccc3Cl)s2)cc(N2CCN(CCO)CC2)n1` [dasatinib], which IC50 ([1]; read-out: IC50 proliferation, non-specific kinase inhibitors) is on record?
Its IC50 is < 100 nM.

With `Cc1ccc(NC(=O)c2ccc(CN3CCN(C)CC3)cc2)cc1Nc1nccc(-c2cccnc2)n1` [imatinib] as the compound, how does the “proliferation inhibition profile, specific kinase blockers” value ([1]; same panel, e.g. K562 cells) read?
The value was “inhibit proliferation of only a few cell lines”.

Which “inhibitory activity” value (Axl) does the source give for `CN[C@@H]1C[C@H]2O[C@@](C)([C@@H]1OC)n1c3ccccc3c3c4c(c5c6ccccc6n2c5c31)C(=O)NC4` [staurosporine] here?
Its value is “showed inhibitory activities as expected”.

For `CCN(CC)CCNC(=O)c1c(C)[nH]c(/C=C2\C(=O)Nc3ccc(F)cc32)c1C` [sunitinib], which “inhibitory activity” value (Axl) is on record?
Its value is “showed inhibitory activities as expected”.

Which results are given for `CC(=O)CC(c1ccccc1)c1c(O)c2ccccc2oc1=O` (stereo not drawn) [warfarin]?
in vivo NK cell cytotoxicity towards RMA-Rae1 (RMA-Rae1 cells): enhanced in vivo NK cell cytotoxicity; prothrombine time / coagulopathy ([2]; 0.5mg/l in drinking water for 21 days): does not cause a coagulopathy; bleeding ([2]; warfarin-treated mice compared to vehicle controls): never observed neither spontaneous nor excessive bleeding; melanoma metastases to the lungs and distal organs (B16F10 melanoma; Cbl-b defective mice): had no apparent effect; melanoma metastases to the lungs and distal organs (B16F10 melanoma; Cbl-b+/+ and Cbl-b+/- mice, day +16): markedly reduced melanoma metastases; metastatic melanomas (B16F10 melanoma; low dose warfarin, absence of NK1.1+ cells): abolished the effects of warfarin; in vivo NK cell cytotoxicity towards RMA-S (RMA-S cells): enhanced in vivo NK cell cytotoxicity
